Source: ChEMBL document CHEMBL1131986, “Structure-activity relationships of biphenyl tetrazoles as metallo-beta-lactamase inhibitors” (Bioorg Med Chem Lett, 1999)

Experiments:
[1] = target: Beta-lactamase (Pseudomonas aeruginosa, UniProt Q79MP6); assay: Inhibition of metallo-beta-lactamase (MBL) from Pseudomonas aeruginosa mediated by the plasmid-borne IMP-1 enzyme.
[2] = target: T1, Dipeptidase 1 (Sus scrofa, UniProt P22412); assay: In vitro apparent inhibition constant of porcine renal Dehydropeptidase-1.; settings: read-out: Ki app
T1 sequence (P22412 whole entry): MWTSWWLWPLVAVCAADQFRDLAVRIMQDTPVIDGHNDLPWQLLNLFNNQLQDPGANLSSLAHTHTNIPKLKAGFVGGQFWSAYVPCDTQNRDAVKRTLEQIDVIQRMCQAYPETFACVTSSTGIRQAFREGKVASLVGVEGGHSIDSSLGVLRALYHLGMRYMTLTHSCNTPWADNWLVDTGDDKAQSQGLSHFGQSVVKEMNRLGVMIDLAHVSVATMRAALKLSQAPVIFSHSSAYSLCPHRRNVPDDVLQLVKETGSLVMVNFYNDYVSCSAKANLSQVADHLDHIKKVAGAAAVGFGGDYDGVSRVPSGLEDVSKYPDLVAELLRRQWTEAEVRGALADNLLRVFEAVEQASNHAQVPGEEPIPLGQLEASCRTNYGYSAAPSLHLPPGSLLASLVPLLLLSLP

[3] = target: Metallo-beta-lactamase type 2 (Bacteroides fragilis, UniProt P25910); assay: Inhibition of metallo-beta-lactamase (MBL) from Bacteroides fragilis.
Chain of Metallo-beta-lactamase type 2 (P25910 whole entry): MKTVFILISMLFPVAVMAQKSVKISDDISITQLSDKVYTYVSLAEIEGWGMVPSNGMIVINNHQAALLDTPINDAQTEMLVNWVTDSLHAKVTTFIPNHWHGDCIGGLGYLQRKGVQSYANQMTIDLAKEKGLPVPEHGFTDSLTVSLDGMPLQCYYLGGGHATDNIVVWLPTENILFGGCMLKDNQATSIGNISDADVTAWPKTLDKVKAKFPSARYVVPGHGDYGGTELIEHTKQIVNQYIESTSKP

Chain of Beta-lactamase (Q79MP6 whole entry): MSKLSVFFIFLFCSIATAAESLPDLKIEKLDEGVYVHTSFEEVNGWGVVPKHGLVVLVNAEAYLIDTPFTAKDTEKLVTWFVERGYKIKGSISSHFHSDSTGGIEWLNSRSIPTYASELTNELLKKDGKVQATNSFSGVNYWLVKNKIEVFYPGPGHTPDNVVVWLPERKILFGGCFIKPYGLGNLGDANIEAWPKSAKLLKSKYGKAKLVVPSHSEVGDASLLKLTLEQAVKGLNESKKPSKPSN

IC50 [1] [µM] | Ki [2] [µM] | IC50 [3] [µM] | SMILES
> 200 | 425 | 190 | CCCCc1nn(-c2cccc(Cl)c2)c(C(=O)O)c1Cc1ccc(-c2ccccc2-c2nn[nH]n2)cc1
> 200 | 250 | 100 | CCCCc1nn(-c2ccccc2)c(C(=O)OCC)c1Cc1ccc(-c2ccccc2-c2nnn[nH]2)cc1
66 | 480 | 100 | CCCCc1nn(-c2ccc(Cl)cc2Cl)c(C(=O)OCC)c1Cc1ccc(-c2ccccc2-c2nnn[nH]2)cc1
70 | 380 | 290 | CCCCc1nn(-c2ccc(Cl)cc2)c(C(=O)OCC)c1Cc1ccc(-c2ccccc2-c2nn[nH]n2)cc1
65 | 420 | 180 | CCCCc1nn(-c2ccccc2-c2ccccc2)c(C(=O)O)c1Cc1ccc(-c2ccccc2-c2nnn[nH]2)cc1
> 200 | 400 | 80 | CCCCc1nn(-c2ccc(Cl)cc2Cl)c(C(=O)O)c1Cc1ccc(-c2ccccc2-c2nn[nH]n2)cc1
> 200 | 800 | 33 | CCCCc1nn(-c2c(Cl)cc(Cl)cc2Cl)c(C(=O)O)c1Cc1ccc(-c2ccccc2-c2nnn[nH]2)cc1
150 | – | > 200 | CCCCc1nn(-c2ccccc2-c2ccccc2)c(C(=O)OCC)c1Cc1ccc(-c2ccccc2-c2nn[nH]n2)cc1
> 200 | 640 | 120 | CCCCc1nn(-c2ccccc2[N+](=O)[O-])c(C(=O)O)c1Cc1ccc(-c2ccccc2-c2nnn[nH]2)cc1
76 | 450 | 170 | CCCCc1nn(-c2cccc(Cl)c2)c(C(=O)OCC)c1Cc1ccc(-c2ccccc2-c2nn[nH]n2)cc1
200 | 250 | 170 | CCCCc1nn(-c2ccccc2Cl)c(C(=O)OCC)c1Cc1ccc(-c2ccccc2-c2nnn[nH]2)cc1
175 | 170 | 100 | CCCCc1nn(-c2cccc(Cl)c2Cl)c(C(=O)OCC)c1Cc1ccc(-c2ccccc2-c2nnn[nH]2)cc1
> 200 | 380 | 50 | CCCCc1nn(-c2cc(Cl)ccc2Cl)c(C(=O)O)c1Cc1ccc(-c2ccccc2-c2nnn[nH]2)cc1
> 200 | 310 | 37 | CCCCc1nn(-c2cccc(Cl)c2Cl)c(C(=O)O)c1Cc1ccc(-c2ccccc2-c2nnn[nH]2)cc1
> 200 | 350 | 30 | CCCCc1nn(-c2ccccc2Cl)c(C(=O)O)c1Cc1ccc(-c2ccccc2-c2nn[nH]n2)cc1
> 200 | 450 | 80 | CCCCc1nn(-c2c(Cl)cc(Cl)cc2Cl)c(C(=O)OCC)c1Cc1ccc(-c2ccccc2-c2nn[nH]n2)cc1
> 200 | 380 | 40 | CCCCc1nn(-c2ccccc2C(F)(F)F)c(C(=O)O)c1Cc1ccc(-c2ccccc2-c2nnn[nH]2)cc1
> 200 | – | 70 | CCCCc1nn(-c2ccccc2C)c(C(=O)OCC)c1Cc1ccc(-c2ccccc2-c2nn[nH]n2)cc1
> 200 | 590 | 200 | CCCCc1nn(-c2ccccc2)c(C(=O)O)c1Cc1ccc(-c2ccccc2-c2nn[nH]n2)cc1
> 200 | 470 | 80 | CCCCc1nn(-c2ccccc2C)c(C(=O)O)c1Cc1ccc(-c2ccccc2-c2nn[nH]n2)cc1
> 200 | – | 22 | CCCCc1nn(-c2ccccc2C(F)(F)F)c(C(=O)OCC)c1Cc1ccc(-c2ccccc2-c2nnn[nH]2)cc1
> 200 | 430 | 230 | CCCCc1nn(-c2ccc(Cl)cc2)c(C(=O)O)c1Cc1ccc(-c2ccccc2-c2nn[nH]n2)cc1
> 200 | 500 | 100 | CCCCc1nn(-c2c(Cl)cccc2Cl)c(C(=O)O)c1Cc1ccc(-c2ccccc2-c2nnn[nH]2)cc1
60 | 80 | 100 | CCCCc1nn(-c2cc(Cl)ccc2Cl)c(C(=O)OCC)c1Cc1ccc(-c2ccccc2-c2nn[nH]n2)cc1
> 200 | – | 18 | CCCCc1nn(-c2ccccc2[N+](=O)[O-])c(C(=O)OCC)c1Cc1ccc(-c2ccccc2-c2nnn[nH]2)cc1
